Data reported in a melting point compilation (Tetko et al.; mined from patent text by program, amines drawn as free bases though some values may be those of a salt).

Row | Compound | melting point [°C]
1 | O=C(Nc1c(F)cccc1F)c1ccc(-n2nc(C(F)(F)F)cc2C2CC2)nc1 | 192 to 194
2 | O=C(c1ccc(-n2ccnc2)cc1)N1CCN(S(=O)(=O)c2cc3cc(Cl)ccc3[nH]2)CC1 | 155 to 165
3 | CC(=O)OCC1OC(n2cc(C(Cl)=CI)c(=O)[nH]c2=O)C(OC(C)=O)C1OC(C)=O (stereo not drawn) | 85 to 87
4 | CCc1nn(C(=O)NS(=O)(=O)c2ccccc2C(=O)OC)c(=O)n1C | 131
5 | COc1cc(OC)nc(C(=O)c2nccc(-c3ccccc3)c2C(=O)n2ccnc2)c1 | 126 to 128
6 | CCCCc1oc2ccc([N+](=O)[O-])cc2c1S(=O)(=O)c1ccc(OCCCBr)cc1 | 101
7 | CC(C)(C)c1cccc(S(=O)(=O)n2c(C(=O)c3ccc(C(=O)O)s3)cc3cc(C(F)(F)F)ccc32)c1 | 217
8 | Cc1nc(-c2cccc(C(F)(F)F)c2)oc1COc1ccc(CCC(=O)O)cc1 | 134 to 135
9 | O=C(O)c1cccc(Cc2c(-c3ccc(OC(F)F)c(OC4CC4)c3)[nH]c3cn[nH]c(=O)c23)c1 | 155 to 163
10 | COc1cc(C2=CCCCC2)c(Cl)cc1C(=O)N1Cc2ccc(C(=O)N(C)CC(O)CO)n2Cc2ccccc21 (stereo not drawn) | 155 to 157
11 | Cc1ccc(CCc2cc3c(s2)NC(=S)CN=C3c2ccccc2Cl)cc1 | 190 to 191
12 | O=C(O)C(CC1CC2CCN1CC2)(c1ccccc1)c1ccccc1 (stereo not drawn) | 180 to 185
13 | CCCCCc1ccc(-c2ccc(CCc3ccc(OCC)cc3)cc2)cc1 | 81
14 | Cc1cc(C2=NOC(c3cc(Cl)cc(Cl)c3)(C(F)(F)F)C2)ccc1C(=O)NC1CSC1 (stereo not drawn) | 158 to 159
15 | Cc1cccc(-c2[nH]nc(C(F)(F)F)c2-c2ccncc2)c1 | 237 to 239
16 | Cc1cccc(Cl)c1C(=O)N[C@@H](Cc1ccc(-c2cccn(C)c2=O)cc1)C(=O)O | 204 to 210
17 | CCN(C(=O)OC)C1=CC(=O)CC1 | 68 to 68.5
18 | COC(=O)Cc1ccccc1NC(=S)N(C)C | 110 to 113
19 | N#Cc1cnc2cc3ccc(O)cc3cc2c1Nc1ccc(Cl)cc1Cl | > 300
20 | O=C(O)c1ccc2oc3ccccc3c(=O)c2c1 | > 280
21 | CC(=O)NC1Cc2cccc3cccc(c23)C1=O (stereo not drawn) | 185 to 186
22 | Clc1ccc2c(c1)N=C(N1CCN(C3CC3)CC1)c1ccccc1N2 | 196 to 199
23 | Cc1cc(N2CCN(c3ccccc3)CC2)c(C#N)c(Cl)n1 | 139 to 140
24 | NS(=O)(=O)c1ccc(-n2nc(CCl)cc2-c2ccc(Cl)cc2)cc1 | 198 to 201
25 | CC[C@H]1CC[C@H](CCc2ccc(C(=O)CCC(=O)O)cc2)CC1 | 141 to 143

Row | Compound | melting point [°C]
26 | CCOC(=O)C(O)c1oc(-n2ccnc2C)nc1-c1ccc(Cl)cc1 (stereo not drawn) | 197 to 198
27 | Cn1cnc2cc(NC(=O)c3cc4cc(F)ncc4n3Cc3cccc(F)c3)ccc21 | 279 to 281
28 | CCOC(=O)c1c(C)cc(NC(=O)CCl)c(C(=O)O)c1C | 124 to 125
29 | COc1cc(NC(C)=O)ccc1C=NNC(=N)NN=Cc1ccc(NC(C)=O)cc1OC | 287 to 288
30 | CCC(=O)Nc1ccc(N)c(=O)cc1 | 203 to 205
31 | O=C1C[C@@H](NC(=O)OCc2ccccc2)C(=O)N1 | 117 to 118
32 | CC(C)(CCCCCC(=O)CCCCCC(C)(C)C(=O)O)C(=O)O | 74.5 to 76
33 | CNC(=C[N+](=O)[O-])NCc1ccc(Cl)nc1Cl | 211 to 213
34 | Cc1cc(CBr)c(CBr)cc1C | 116 to 120
35 | CC(C)C(NC(=O)c1ccc(C(=O)NCCCC(=O)O)cc1)C(=O)N1CCCC1C(=O)NC(C(=O)C(F)(F)F)C(C)C (mixture of isomers) | 84 to 86
36 | O=Cc1c(Cl)ccc2cc(Cl)cnc12 | 208
37 | N#CCc1cc2cc(Br)ccc2s1 | 94 to 96
38 | CN(C)CC=CC(=O)Nc1ccc2ncnc(Nc3cccc(Br)c3)c2c1 | 215 to 217
39 | N#Cc1cc(CCNc2ncnc3c(F)ccc(F)c23)ccc1Oc1cc(C(F)(F)F)ccn1 | 157 to 159
40 | c1ccc(-c2ccon2)cc1 | 75
41 | CCCNC(=O)C(C)=Cc1ccc2c(c1)c(Cc1ccc(C(=O)OC)cc1OC)cn2CC(=O)N(C)C | 117 to 118
42 | OCCCN1c2ccccc2CCc2sccc21 | 73
43 | Nc1cccc(SCc2ccccc2)n1 | 65 to 66
44 | O=C(Nc1cccc(-c2ccnc3c(C(=O)c4cccs4)cnn23)c1)c1ccccc1 | 211 to 213
45 | O=C(c1ccc(F)cc1)C1CCN(CCCCn2c(=O)[nH]c3cscc3c2=O)CC1 | 190 to 192
46 | CC=C1CCC2C3=CC=C4CC(O[Si](C)(C)C(C)(C)C(C)C)CCC4(C)C3CCC12C (stereo not drawn) | 94 to 97
47 | N=C(N)NCCCCOc1ccc2c(c1)CC(CCC(=O)O)C(=O)N2 (stereo not drawn) | 152 to 155
48 | BrCC(Br)c1ccc(C(Br)CBr)cc1 (stereo not drawn) | 155 to 157
49 | COc1ccc(C=NCC(OC)OC)cc1OC | 50 to 52
50 | CN1CCN(Cc2ccc(C(=O)Nc3ccc(CO)c(Nc4nccc(-c5cccnc5)n4)c3)cc2)CC1 | 196 to 198

Row | Compound | melting point [°C]
51 | COc1ccc(-c2nc(SC)ncc2-c2ccc(Cl)cc2)cc1 | 127 to 130
52 | O=C(C1=NN(c2ccc(Cl)cc2Cl)C(c2ccc(Cl)cc2)C1)N1CCCCC1 (stereo not drawn) | 105 to 110
53 | CC(CCC(=O)O)(c1ccc(OCc2ccc3ccccc3c2)cc1)c1ccc(OCc2ccc3ccccc3n2)cc1 (stereo not drawn) | 64 to 68
54 | Cc1cccc(-c2sc(N)nc2-c2ccnc(-c3ccc(OCCN4CCCC4)cc3)c2)n1 | 150
55 | COC(=O)c1nc(C2CCCCC2)[nH]c1-c1ccc(C)cc1 | 210 to 213
56 | Cc1cnn(Cc2ccc3c(c2)-c2[nH]nc(-c4ccsc4)c2C3)c1 | 262 to 263
57 | NC(C(=O)N1CCC(F)C1)C1CCCCC1 (mixture of isomers) | > 250
58 | COc1ccc2cccc3c2c1C(CC(=O)O)CC3 (stereo not drawn) | 147
59 | COc1cc2c(cc1Nc1ncc(Cl)c(Nc3ccccc3S(=O)(=O)N3CCC(O)C3)n1)CCNC(=O)C2 (stereo not drawn) | 86 to 97
60 | CCCCn1c(=O)c2ncn(C)c2c2cccnc21 | 198 to 202
61 | O=C(CC(F)(F)F)Nc1c(C(=O)c2ccccc2)[nH]c2cc(Cl)ccc12 | 201 to 204
62 | COc1ccc(C(=O)COC(=O)NC(C)C)cc1 | 121 to 122
63 | CCCCCCCCCCCCCCCCCCNC(=O)SCC(COCc1ccccc1)OC (stereo not drawn) | 40 to 41
64 | CC(=O)Oc1ccc(N2CCC(=O)c3ccccc32)cc1 | 130 to 132
65 | CN1C(=O)CC[C@]2(C)c3ccc(C=Cc4cnc5ccccc5c4)cc3CC[C@@H]12 | 181 to 183
66 | Cc1ccc(NC(=O)c2ccc([N+](=O)[O-])cc2)cc1 | 140 to 146
67 | Cc1cccc2c1N(N=C=O)C(=O)CN=C2 | 206 to 212
68 | CN1CCN(Cc2cc(-c3ccc4c(c3)CCO4)nn(CC3CC3)c2=O)CC1 | 128 to 130
69 | CCCc1c(OCCCSc2ccc(C(=O)O)cn2)ccc(C(C)=O)c1O | 145 to 147
70 | Nc1ccc2c(ccn2C(=O)c2ccc(F)cc2)c1 | 205 to 207
71 | CCCCCCCCC1N=C(N)NC(Nc2cc(C(C)(C)C)ccc2OC)=N1 (stereo not drawn) | 129 to 132
72 | COc1ccc2c(c1)c(CCO)c(C)n2-c1ncnc2cc(Cl)ccc12 | 148 to 150
73 | O=C(c1ccccn1)c1cnn2c(-c3cccc(NC(=O)C4CC4)c3)ccnc12 | 214 to 215
74 | O=c1c(-c2cc(=O)c3c(O)cccc3o2)cn(-c2ccccc2)c2ccccc12 | > 300
75 | O=C(O)c1ccc(-c2ccc(NC(=O)C(F)(F)F)cc2)[nH]c1=O | > 270

Row | Compound | melting point [°C]
76 | O=C1OCCN1C(=O)c1ccccc1 | 166 to 170
77 | CCOP(=O)(CCNCc1c(N)c(=O)c1=O)OCC | 130 to 132
78 | COc1ccc(Oc2cccc(C(=O)NCCN(O)C(N)=O)c2)cc1 | 160 to 162
79 | Cc1ccccc1OCC(O)COc1cccc2oc(C(=O)O)cc(=O)c12 (stereo not drawn) | 95 to 97
80 | COC1(c2ccccc2)N=CC(=O)N(C)c2ccc([N+](=O)[O-])cc21 (stereo not drawn) | 163 to 164
81 | CCNc1nc(OC)c(C(=O)NCC2CCCN2CC)nc1Cl (stereo not drawn) | 167 to 169
82 | CCOC(=O)c1ccccc1N(CC(=O)OC(C)(C)C)C(=O)CNC(=O)Nc1cccc(C)c1 | 142
83 | CCCCCCCCCCCCCCCC(=O)NC(=O)OCc1nc(C(C)C)c(Sc2cc(Cl)cc(Cl)c2)n1CC | 95 to 97
84 | O=C(Nc1ccccc1F)O[C@@H]1CN=C(c2ccccc2)O[C@H]1c1ccccc1 (racemic) | 98
85 | N#CC1=C(C2CC2)Nc2n[nH]cc2C1c1cccc(Cl)c1Cl (stereo not drawn) | > 250
86 | COc1ccccc1NC(=O)Nc1nc(N2CCC(O)CC2)nc(N(CCC(=O)O)Cc2ccc(Cl)c(Cl)c2)n1 | 121 to 124
87 | Nc1cccc(C(=O)O)c1NCc1ccccc1Cl | 203 to 204
88 | CCOC(=O)c1nc(-c2ccc(OC)cc2)sc1C | 65 to 66
89 | N#Cc1ccc(C(Cl)=NNc2c(Cl)cc(C(F)(F)F)cc2Cl)cc1 | 168 to 169
90 | O=C(NCCCCCCCCNC(=O)c1ccc2c(c1)OCO2)c1ccc2c(c1)OCO2 | 179 to 180
91 | O=C1CCCc2nc3ccccc3c(NCCc3ccccc3)c21 | 129 to 132
92 | CC(C)(C)NC(=O)NCC#N | 128 to 132
93 | CCS(=O)(=O)N(CCCCC(N)=O)C1CC(C)(C)Oc2ccc(C)cc21 (stereo not drawn) | 127 to 129
94 | CCC1c2cccn2-c2ccc(F)cc2N1C(=O)c1ccc(OC)cc1OC (stereo not drawn) | 131 to 132
95 | Cn1c(=O)c(C#N)c(N2CCNCC2)c2cc(F)ccc21 | 211
96 | O=C(O)c1nc(-c2ccccc2)n2c1CN=C(c1ccccc1F)c1cc(Cl)ccc1-2 | 267 to 269
97 | O=C(O)C1Cc2[nH]c3ccc(OCc4ccccc4)cc3c2C1 (stereo not drawn) | 161 to 163
98 | Nc1ccc(-c2noc(-c3cnn4c(C(F)F)cc(-c5ccc(C(F)(F)F)cc5)nc34)n2)cn1 | 242
